In ChEMBL document CHEMBL1201861, “Genomics of Drug Sensitity in Cancer screening data, Wellcome Trust Sanger Institute”:
Structures can show the parent of a compound that is named as a salt.

Tests used:
Test in all cases: cells
G-401 = assay type: functional, cell-based, Homo sapiens
Description: SANGER: Inhibition of human G-401 cell growth in a cell viability assay.

LC4-1 = assay type: functional, cell-based, Homo sapiens;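 also: growth inhibition of LC4-1 cells, read out with a cell viability assay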
Description: SANGER: Inhibition of human LC4-1 cell growth in a cell viability assay.

COLO-680N = assay type: functional, cell-based, Homo sapiens;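 also: cell viability assay used to measure inhibition of COLO-680N cell growth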
Description: SANGER: Inhibition of human COLO-680N cell growth in a cell viability assay.

MDA-MB-415 = assay type: functional, cell-based, Homo sapiens
RO82-W-1 = assay type: functional, cell-based, Homo sapiens;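 also: growth inhibition of human RO82-W-1 cells, measured with a cell viability assay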
Description: SANGER: Inhibition of human RO82-W-1 cell growth in a cell viability assay.

HT-3 = assay type: functional, cell-based, Homo sapiens;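 also: growth inhibition measured with a cell viability readout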
Description: SANGER: Inhibition of human HT-3 cell growth in a cell viability assay.

MKN-1 = assay type: functional, cell-based, Homo sapiens;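 also: growth inhibition of human MKN1 cells, read out by a cell viability measurement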
Description: SANGER: Inhibition of human MKN1 cell growth in a cell viability assay.

HT55 = assay type: functional, cell-based, Homo sapiens;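 also: cell viability readout measuring growth inhibition of human HT55 cells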
Description: SANGER: Inhibition of human HT55 cell growth in a cell viability assay.

CWR22R = assay type: functional, cell-based, Homo sapiens;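 also: growth inhibition of 22Rv1 cells, read out with a cell viability assay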
Description: SANGER: Inhibition of human 22RV1 cell growth in a cell viability assay.

LK-2 = assay type: functional, cell-based, Homo sapiens;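 also: growth inhibition of LK-2 cells, read out with a viability assay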
Description: SANGER: Inhibition of human LK-2 cell growth in a cell viability assay.

Daudi = assay type: functional, cell-based, Homo sapiens;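 also: growth inhibition of Daudi cells, read out by a viability assay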
Description: SANGER: Inhibition of human Daudi cell growth in a cell viability assay.

SIMA = assay type: functional, cell-based, Homo sapiens;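 also: growth inhibition of SIMA cells, measured with a cell viability readout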
Description: SANGER: Inhibition of human SIMA cell growth in a cell viability assay.

DG-75 = assay type: functional, cell-based, Homo sapiens;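 also: growth inhibition of DG-75 cells, read out with a cell viability assay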
Description: SANGER: Inhibition of human DG-75 cell growth in a cell viability assay.

LCLC-103H cell line = assay type: functional, cell-based, Homo sapiens
Description: SANGER: Inhibition of human LCLC-103H cell growth in a cell viability assay.

HSC-3 = assay type: functional, cell-based, Homo sapiens
Description: SANGER: Inhibition of human HSC-3 cell growth in a cell viability assay.

647-V = assay type: functional, cell-based, Homo sapiens;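 also: growth inhibition of 647-V cells, read out with a cell viability assay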
Description: SANGER: Inhibition of human 647-V cell growth in a cell viability assay.

U2OS = assay type: functional, cell-based, Homo sapiens, U-2-OS;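 also: growth inhibition of human U-2-OS cells, determined with a cell viability assay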
Description: SANGER: Inhibition of human U-2-OS cell growth in a cell viability assay.

SW1990 = assay type: functional, cell-based, Homo sapiens;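 also: cell growth inhibition determined with a viability assay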
Description: SANGER: Inhibition of human SW1990 cell growth in a cell viability assay.

H4 = assay type: functional, cell-based, Homo sapiens
Description: SANGER: Inhibition of human H4 cell growth in a cell viability assay.

RL = assay type: functional, cell-based, Homo sapiens
Description: SANGER: Inhibition of human RL cell growth in a cell viability assay.

KYSE-70 cell line = assay type: functional, cell-based, Homo sapiens;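 also: cell viability assay read-out, with IC50 expressing suppression of KYSE-70 cell growth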
Description: SANGER: Inhibition of human KYSE-70 cell growth in a cell viability assay.

RVH-421 = assay type: functional, cell-based, Homo sapiens
Description: SANGER: Inhibition of human RVH-421 cell growth in a cell viability assay.

EFO-21 = assay type: functional, cell-based, Homo sapiens;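 also: growth inhibition of EFO-21 cells measured with a viability assay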
Description: SANGER: Inhibition of human EFO-21 cell growth in a cell viability assay.

NB1 = assay type: functional, cell-based, Homo sapiens;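 also: reduction of NB1 cell proliferation, read out with a viability assay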
Description: SANGER: Inhibition of human NB1 cell growth in a cell viability assay.

RPMI-6666 = assay type: functional, cell-based, Homo sapiens
Description: SANGER: Inhibition of human RPMI-6666 cell growth in a cell viability assay.

NCI-H1436 = assay type: functional, cell-based, Homo sapiens;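 also: growth suppression of human NCI-H1436 cells, determined with a cell viability readout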
Description: SANGER: Inhibition of human NCI-H1436 cell growth in a cell viability assay.

MC-IXC = assay type: functional, cell-based, Homo sapiens;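 also: growth inhibition of MC-IXC cells, read out with a cell viability assay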
Description: SANGER: Inhibition of human MC-IXC cell growth in a cell viability assay.

MEL-JUSO = assay type: functional, cell-based, Homo sapiens;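 also: growth inhibition of human MEL-JUSO cells, read out with a cell viability assay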
Description: SANGER: Inhibition of human MEL-JUSO cell growth in a cell viability assay.

A2780 = assay type: functional, cell-based, Homo sapiens;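 also: growth inhibition of A2780 cells, read out with a cell viability assay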
Description: SANGER: Inhibition of human A2780 cell growth in a cell viability assay.

CaR-1 = assay type: functional, cell-based, Homo sapiens;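 also: growth inhibition of human CaR-1 cancer cells, read out with a cell viability assay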
Description: SANGER: Inhibition of human CaR-1 cell growth in a cell viability assay.

HMV-2 cell line = assay type: functional, cell-based, Homo sapiens;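 also: growth inhibition of HMV-II cells, read out with a cell viability assay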
Description: SANGER: Inhibition of human HMV-II cell growth in a cell viability assay.

UACC-812 = assay type: functional, cell-based, Homo sapiens
Description: SANGER: Inhibition of human UACC-812 cell growth in a cell viability assay.

JEG-3 = assay type: functional, cell-based, Homo sapiens;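 also: growth inhibition of human JEG-3 cells, read out with a cell viability assay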
Description: SANGER: Inhibition of human JEG-3 cell growth in a cell viability assay.

OVCAR-3 = assay type: functional, cell-based, Homo sapiens;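 also: growth inhibition of human OVCAR-3 cells, determined by a cell viability assay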
Description: SANGER: Inhibition of human OVCAR-3 cell growth in a cell viability assay.

KP-4 = assay type: functional, cell-based, Homo sapiens;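 also: human KP-4 cells, with growth inhibition read out through a cell viability assay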
Description: SANGER: Inhibition of human KP-4 cell growth in a cell viability assay.

SNU-449 = assay type: functional, cell-based, Homo sapiens
Description: SANGER: Inhibition of human SNU-449 cell growth in a cell viability assay.

NCI-H524 = assay type: functional, cell-based, Homo sapiens;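 also: growth inhibition of human NCI-H524 cells, read out through a cell viability assay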
Description: SANGER: Inhibition of human NCI-H524 cell growth in a cell viability assay.

NCI-H460 = assay type: functional, cell-based, Homo sapiens;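 also: cell viability assay scoring growth inhibition of human NCI-H460 cells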
Description: SANGER: Inhibition of human NCI-H460 cell growth in a cell viability assay.

NCI-H1651 = assay type: functional, cell-based, Homo sapiens;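 also: Read-out is a cell viability assay, with IC50 expressing inhibition of NCI-H1651 cell growth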
Description: SANGER: Inhibition of human NCI-H1651 cell growth in a cell viability assay.

NCI-H810 = assay type: functional, cell-based, Homo sapiens;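 also: IC50 reflects inhibition of cancer cell line growth, read out with a cell viability assay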
Description: SANGER: Inhibition of human NCI-H810 cell growth in a cell viability assay.

L-540 = assay type: functional, cell-based, Homo sapiens;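 also: growth inhibition of the human L-540 cell line, read out with a viability assay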
Description: SANGER: Inhibition of human L-540 cell growth in a cell viability assay.

TALL-1 = assay type: functional, cell-based, Homo sapiens;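 also: growth inhibition of cultured human TALL-1 cells, read out by a cell viability assay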
Description: SANGER: Inhibition of human TALL-1 cell growth in a cell viability assay.

CAL-62 = assay type: functional, cell-based, Homo sapiens;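 also: growth inhibition of CAL-62 cells, read out with a cell viability assay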
Description: SANGER: Inhibition of human CAL-62 cell growth in a cell viability assay.

MG-63 = assay type: functional, cell-based, Homo sapiens;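 also: growth inhibition of human MG-63 cells, read out with a cell viability assay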
Description: SANGER: Inhibition of human MG-63 cell growth in a cell viability assay.

CPC-N = assay type: functional, cell-based, Homo sapiens;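 also: growth inhibition of CPC-N cells, with a cell viability assay as the readout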
Description: SANGER: Inhibition of human CPC-N cell growth in a cell viability assay.

OPM-2 = assay type: functional, cell-based, Homo sapiens;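 also: growth of OPM-2 cells measured with a viability assay, IC50 for suppression of proliferation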
Description: SANGER: Inhibition of human OPM-2 cell growth in a cell viability assay.

NCI-H727 = assay type: functional, cell-based, Homo sapiens;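 also: growth inhibition of human NCI-H727 cells, read out with a cell viability assay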
Description: SANGER: Inhibition of human NCI-H727 cell growth in a cell viability assay.

O=C(O)c1ccc(-c2c[nH]c3ncc(-c4ccccc4)cc23)cc1C1CCCC1 [GSK-650394] was tested, and the IC50 (G-401; Homo sapiens, G-401) was greater than 16 µM, the IC50 (LC4-1; Homo sapiens, LC4-1) was greater than 16 µM and the IC50 (COLO-680N; Homo sapiens, COLO-680N) was greater than 16 µM. The IC50 (MDA-MB-415; Homo sapiens, MDA-MB-415) was greater than 16 µM, the IC50 (RO82-W-1; Homo sapiens, RO82-W-1) was greater than 16 µM and the IC50 (HT-3; Homo sapiens, HT-3) was greater than 16 µM. For the same molecule, the IC50 (MKN-1; Homo sapiens, MKN-1) was 9.19 µM, the IC50 (HT55; Homo sapiens, HT55) was greater than 16 µM and the IC50 (CWR22R; Homo sapiens, 22Rv1) was greater than 16 µM. The IC50 (LK-2; Homo sapiens, LK-2) was greater than 16 µM, the IC50 (Daudi; Homo sapiens, Daudi) was greater than 16 µM and the IC50 (SIMA; Homo sapiens, SIMA) was greater than 16 µM. For the same molecule, the IC50 (DG-75; Homo sapiens, DG-75) was greater than 16 µM, the IC50 (LCLC-103H cell line; Homo sapiens, LCLC-103H) was 3.91 µM and the IC50 (HSC-3; Homo sapiens, HSC-3) was greater than 16 µM. The IC50 (647-V; Homo sapiens, 647-V) was greater than 16 µM, the IC50 (U2OS; Homo sapiens, U2OS) was greater than 16 µM and the IC50 (SW1990; Homo sapiens, SW1990) was greater than 16 µM. For the same molecule, the IC50 (H4; Homo sapiens, H4) was greater than 16 µM, the IC50 (RL; Homo sapiens, RL) was greater than 16 µM and the IC50 (KYSE-70 cell line; Homo sapiens, KYSE-70) was greater than 16 µM. For the same molecule, the IC50 (RVH-421; Homo sapiens, RVH-421) was greater than 16 µM, the IC50 (EFO-21; Homo sapiens, EFO-21) was greater than 16 µM and the IC50 (NB1; Homo sapiens, NB1) was greater than 16 µM. For the same molecule, the IC50 (RPMI-6666; Homo sapiens, RPMI-6666) was greater than 16 µM, the IC50 (NCI-H1436; Homo sapiens, NCI-H1436) was greater than 16 µM and the IC50 (MC-IXC; Homo sapiens, MC-IXC) was greater than 16 µM. The IC50 (MEL-JUSO; Homo sapiens, MEL-JUSO) was 4.69 µM, the IC50 (A2780; Homo sapiens, A2780) was greater than 16 µM and the IC50 (CaR-1; Homo sapiens, CaR-1) was greater than 16 µM. For the same molecule, the IC50 (HMV-2 cell line; Homo sapiens, HMV-2) was 7.51 µM, the IC50 (UACC-812; Homo sapiens, UACC-812) was greater than 16 µM and the IC50 (JEG-3; Homo sapiens, JEG-3) was greater than 16 µM. For the same molecule, the IC50 (OVCAR-3; Homo sapiens, OVCAR-3) was greater than 16 µM, the IC50 (KP-4; Homo sapiens, KP-4) was 5.19 µM and the IC50 (SNU-449; Homo sapiens, SNU-449) was greater than 16 µM. The IC50 (NCI-H524; Homo sapiens, NCI-H524) was greater than 16 µM, the IC50 (NCI-H460; Homo sapiens, NCI-H460) was 3.4 µM and the IC50 (NCI-H1651; Homo sapiens, NCI-H1651) was greater than 16 µM. For the same molecule, the IC50 (NCI-H810; Homo sapiens, NCI-H810) was greater than 16 µM, the IC50 (L-540; Homo sapiens, L-540) was greater than 16 µM and the IC50 (TALL-1; Homo sapiens, TALL-1) was greater than 16 µM. For the same molecule, the IC50 (CAL-62; Homo sapiens, CAL-62) was 4.77 µM, the IC50 (MG-63; Homo sapiens, MG-63) was greater than 16 µM and the IC50 (CPC-N; Homo sapiens, CPC-N) was 10.3 µM. The IC50 (OPM-2; Homo sapiens, OPM-2) was greater than 16 µM and the IC50 (NCI-H727; Homo sapiens, NCI-H727) was greater than 16 µM.

COC1=CC(c2cc3ccccc3[nH]2)=N/C1=C\c1[nH]c(C)cc1C [OBATOCLAX MESYLATE] gave an IC50 (G-401; Homo sapiens, G-401) of 0.0309 µM, an IC50 (LC4-1; Homo sapiens, LC4-1) of 0.514 µM and an IC50 (COLO-680N; Homo sapiens, COLO-680N) of 0.0505 µM. The IC50 (MDA-MB-415; Homo sapiens, MDA-MB-415) was 2.18 µM, the IC50 (RO82-W-1; Homo sapiens, RO82-W-1) was 2.41 µM and the IC50 (HT-3; Homo sapiens, HT-3) was 1.31 µM. It also gave an IC50 (MKN-1; Homo sapiens, MKN-1) of 0.304 µM, an IC50 (HT55; Homo sapiens, HT55) of 2.79 µM and an IC50 (CWR22R; Homo sapiens, 22Rv1) of 0.274 µM. For the same molecule, the IC50 (LK-2; Homo sapiens, LK-2) was 0.0506 µM, the IC50 (Daudi; Homo sapiens, Daudi) was 0.0708 µM and the IC50 (SIMA; Homo sapiens, SIMA) was 0.494 µM. For the same molecule, the IC50 (DG-75; Homo sapiens, DG-75) was 6.89 µM, the IC50 (LCLC-103H cell line; Homo sapiens, LCLC-103H) was 0.185 µM and the IC50 (HSC-3; Homo sapiens, HSC-3) was less than 0.0625 µM. It also gave an IC50 (647-V; Homo sapiens, 647-V) of 0.104 µM, an IC50 (U2OS; Homo sapiens, U2OS) greater than 16 µM and an IC50 (SW1990; Homo sapiens, SW1990) of 0.239 µM. The IC50 (H4; Homo sapiens, H4) was 1.15 µM, the IC50 (RL; Homo sapiens, RL) was greater than 16 µM and the IC50 (KYSE-70 cell line; Homo sapiens, KYSE-70) was 0.0695 µM. The IC50 (RVH-421; Homo sapiens, RVH-421) was 0.0167 µM, the IC50 (EFO-21; Homo sapiens, EFO-21) was 0.841 µM and the IC50 (NB1; Homo sapiens, NB1) was 0.279 µM. The IC50 (RPMI-6666; Homo sapiens, RPMI-6666) was 0.0897 µM, the IC50 (NCI-H1436; Homo sapiens, NCI-H1436) was 1.26 µM and the IC50 (MC-IXC; Homo sapiens, MC-IXC) was 0.345 µM. The IC50 (MEL-JUSO; Homo sapiens, MEL-JUSO) was 0.0247 µM, the IC50 (A2780; Homo sapiens, A2780) was 0.0208 µM and the IC50 (CaR-1; Homo sapiens, CaR-1) was 3.98 µM. It also gave an IC50 (HMV-2 cell line; Homo sapiens, HMV-2) of 0.0524 µM, an IC50 (UACC-812; Homo sapiens, UACC-812) of 11.7 µM and an IC50 (JEG-3; Homo sapiens, JEG-3) of 1.5 µM. The IC50 (OVCAR-3; Homo sapiens, OVCAR-3) was 0.516 µM, the IC50 (KP-4; Homo sapiens, KP-4) was 0.696 µM and the IC50 (SNU-449; Homo sapiens, SNU-449) was 0.208 µM. For the same molecule, the IC50 (NCI-H524; Homo sapiens, NCI-H524) was 9.59 µM, the IC50 (NCI-H460; Homo sapiens, NCI-H460) was 0.101 µM and the IC50 (NCI-H1651; Homo sapiens, NCI-H1651) was 0.497 µM. For the same molecule, the IC50 (NCI-H810; Homo sapiens, NCI-H810) was 0.117 µM, the IC50 (L-540; Homo sapiens, L-540) was 0.216 µM and the IC50 (TALL-1; Homo sapiens, TALL-1) was greater than 16 µM. For the same molecule, the IC50 (CAL-62; Homo sapiens, CAL-62) was 0.026 µM, the IC50 (MG-63; Homo sapiens, MG-63) was 0.214 µM and the IC50 (CPC-N; Homo sapiens, CPC-N) was 1.98 µM. The IC50 (OPM-2; Homo sapiens, OPM-2) was 0.509 µM and the IC50 (NCI-H727; Homo sapiens, NCI-H727) was 0.0805 µM.

With BLEOMYCIN the IC50 (G-401; g-401) was 3.29 µM, the IC50 (LC4-1; lc4-1) was 11.2 µM and the IC50 (COLO-680N; colo-680n) was 5.76 µM. The IC50 (MDA-MB-415; mda-mb-415) was 67.3 µM, the IC50 (RO82-W-1; ro82-w-1) was 339 µM and the IC50 (HT-3; ht-3) was 5.78 µM. For the same molecule, the IC50 (MKN-1; mkn-1) was 0.0796 µM, the IC50 (HT55; ht55) was 1040 µM and the IC50 (CWR22R; cwr22r) was 7.33 µM. For the same molecule, the IC50 (LK-2; lk-2) was 1.69 µM, the IC50 (Daudi; daudi) was 1.67 µM and the IC50 (SIMA; sima) was 6.93 µM. For the same molecule, the IC50 (DG-75; dg-75) was 16.9 µM, the IC50 (LCLC-103H cell line; lclc-103h) was 0.144 µM and the IC50 (HSC-3; hsc-3) was 0.688 µM. It also gave an IC50 (647-V; 647-v) of 1.73 µM, an IC50 (U2OS; u-2-os) of 265 µM and an IC50 (SW1990; sw1990) of 4.24 µM. For the same molecule, the IC50 (H4; h4) was 0.321 µM, the IC50 (RL; rl) was 2270 µM and the IC50 (KYSE-70 cell line; kyse-70) was 1.38 µM. For the same molecule, the IC50 (RVH-421; rvh-421) was 2.57 µM, the IC50 (EFO-21; efo-21) was 4.33 µM and the IC50 (NB1; nb1) was 11.6 µM. For the same molecule, the IC50 (RPMI-6666; rpmi-6666) was 0.445 µM, the IC50 (NCI-H1436; nci-h1436) was 2770 µM and the IC50 (MC-IXC; mc-ixc) was 3 µM. For the same molecule, the IC50 (MEL-JUSO; mel-juso) was 0.109 µM, the IC50 (A2780; a2780) was 0.22 µM and the IC50 (CaR-1; car-1) was 4.45 µM. It also gave an IC50 (HMV-2 cell line; hmv-2) of 0.0697 µM, an IC50 (UACC-812; uacc-812) of 99.6 µM and an IC50 (JEG-3; jeg-3) of 8.55 µM. It also gave an IC50 (OVCAR-3; ovcar-3) of 123 µM, an IC50 (KP-4; kp-4) of 2.17 µM and an IC50 (SNU-449; snu-449) of 0.389 µM. For the same molecule, the IC50 (NCI-H524; nci-h524) was 190 µM, the IC50 (NCI-H460; nci-h460) was 4.76 µM and the IC50 (NCI-H1651; nci-h1651) was 0.505 µM. For the same molecule, the IC50 (NCI-H810; nci-h810) was 55.1 µM, the IC50 (L-540; l-540) was 23.5 µM and the IC50 (TALL-1; tall-1) was 244 µM. The IC50 (CAL-62; cal-62) was 3.34 µM, the IC50 (MG-63; mg-63) was 1.49 µM and the IC50 (CPC-N; cpc-n) was 52.5 µM. The IC50 (OPM-2; opm-2) was 104 µM and the IC50 (NCI-H727; nci-h727) was 10.3 µM.
